# Source: patent publication US9056209B2, “Apigenin-containing composition” (Kao Corporation, priority 2009, dated 2015)
# Experiment: Evaluation of stability of apigenin in composition (apigenin retention ratio by HPLC)
# Format: physicochemical
# Conditions: for Apigenin retention ratio (amount of apigenin stored at 50° C./amount of apigenin stored at −5° C.): apigenin about 9 ppm, stored one month
# Protocol: Twenty gram of Roman chamomile was extracted with 200 mL of 50% butanediol for 7 days at room temperature, and then the extract was filtered to obtain 155 mL of a Roman chamomile extract. The evaporation residue in 1 mL of the extract was 18.6 mg, and the amount of apigenin in 1 mL of the extract was 305 ppm. This extract was used as the apigenin-containing extract in the following experiments. BHT was added to each of the solutions of various pH conditions, in an amount of 0, 1, 10, 100 and 500 ppm, respectively, and thus test solutions (final apigenin concentration: about 9 ppm) were prepared. The respective test solutions were stored for one month under the conditions of −5° C. and 50° C., and then the amount of apigenin in each of the solutions was measured by HPLC (Inertsil ODS-3 (internal diameter 3.0 mm, length 150 mm, particle size 5 μm) manufactured by GL Sciences, Inc., eluent: 50% aqueous solution of 25 mM potassium dihydrogen phosphate/50% methanol, column temperature: 40° C., detection: UV 340 nm). The ratio of the amount of apigenin stored at 50° C. with respect to that stored at −5° C. was determined as the apigenin retention ratio.
smiles,measurement,setting,value
"O=c1cc(-c2ccc(O)cc2)oc2cc(O)cc(O)c12 [Apigenin, apigenin]",apigenin retention ratio (in words),"mass ratio apigenin/BHT about 1 or greater, or pH of the solution less than 7, storage for a long time",high retention ratios were maintained
same,apigenin retention ratio (in words),mass ratio apigenin/BHT about less than 1 (BHT 10 ppm or more) and pH 7 or higher,the apigenin retention ratio decreased
same,Apigenin retention ratio (amount of apigenin stored at 50° C./amount of apigenin stored at −5° C.),"pH 6, BHT 0 ppm",103%
same,Apigenin retention ratio (amount of apigenin stored at 50° C./amount of apigenin stored at −5° C.),"pH 6, BHT 1 ppm",102%
same,Apigenin retention ratio (amount of apigenin stored at 50° C./amount of apigenin stored at −5° C.),"pH 6, BHT 10 ppm",98%
same,Apigenin retention ratio (amount of apigenin stored at 50° C./amount of apigenin stored at −5° C.),"pH 6, BHT 100 ppm",96%
same,Apigenin retention ratio (amount of apigenin stored at 50° C./amount of apigenin stored at −5° C.),"pH 6, BHT 500 ppm",96%
same,Apigenin retention ratio (amount of apigenin stored at 50° C./amount of apigenin stored at −5° C.),"pH 6.5, BHT 0 ppm",100%
same,Apigenin retention ratio (amount of apigenin stored at 50° C./amount of apigenin stored at −5° C.),"pH 6.5, BHT 1 ppm",94%
same,Apigenin retention ratio (amount of apigenin stored at 50° C./amount of apigenin stored at −5° C.),"pH 6.5, BHT 10 ppm",98%
same,Apigenin retention ratio (amount of apigenin stored at 50° C./amount of apigenin stored at −5° C.),"pH 6.5, BHT 100 ppm",96%
same,Apigenin retention ratio (amount of apigenin stored at 50° C./amount of apigenin stored at −5° C.),"pH 6.5, BHT 500 ppm",99%
same,Apigenin retention ratio (amount of apigenin stored at 50° C./amount of apigenin stored at −5° C.),"pH 7, BHT 0 ppm",96%
same,Apigenin retention ratio (amount of apigenin stored at 50° C./amount of apigenin stored at −5° C.),"pH 7, BHT 1 ppm",96%
same,Apigenin retention ratio (amount of apigenin stored at 50° C./amount of apigenin stored at −5° C.),"pH 7, BHT 10 ppm",98%
same,Apigenin retention ratio (amount of apigenin stored at 50° C./amount of apigenin stored at −5° C.),"pH 7, BHT 100 ppm",82%
same,Apigenin retention ratio (amount of apigenin stored at 50° C./amount of apigenin stored at −5° C.),"pH 7, BHT 500 ppm",35%
same,Apigenin retention ratio (amount of apigenin stored at 50° C./amount of apigenin stored at −5° C.),"pH 8, BHT 0 ppm",98%
same,Apigenin retention ratio (amount of apigenin stored at 50° C./amount of apigenin stored at −5° C.),"pH 8, BHT 1 ppm",99%
same,Apigenin retention ratio (amount of apigenin stored at 50° C./amount of apigenin stored at −5° C.),"pH 8, BHT 10 ppm",91%
same,Apigenin retention ratio (amount of apigenin stored at 50° C./amount of apigenin stored at −5° C.),"pH 8, BHT 100 ppm",73%
same,Apigenin retention ratio (amount of apigenin stored at 50° C./amount of apigenin stored at −5° C.),"pH 8, BHT 500 ppm",11%
